This is an account of results in patent EP1614683B1, “Indazole compounds and pharmaceutical compositions for inhibiting protein kinases, and methods for their use” (priority 1999, dated 2001).

Data set [1] concerns lung cancer cells (line MV522). As to the kind of experiment: Cancer cell proliferation (MV522) assay. Type of data set: cell-based. Here is the method: The protocol for assessing cellular proliferation in cancer cells is similar to that used for assessments in HUVEC cells. Two thousand lung cancer cells (line MV522, acquired from American Tissue Cultural Collection) were seeded in growth media (RPMI1640 medium supplemented with 2 mM glutamine and 10% FBS). Cells are allowed to attach for 1 day prior to addition of test agents and /or vehicles. Cells are treated simultaneously with the same test agents used in the HUVEC assay. Cellular proliferation is quantified by MTT dye reduction assay 72 hours after exposure to test agents. The total length of the assay is 4 days vs. 5 for HUVEC cells because MV522 cells are not exposed to starvation medium.

Data set [2] has as its target LCK tyrosine kinase (Homo sapiens, UniProt P06239, C224D/P223M). As to the kind of experiment: LCK spectrophotometric assay. Type of data set: biochemical. Conditions: Table 1; compound concentration 1 µM; read-out: Lck-P* (% inhibition). Here is the method: The spectrophotometric assay was carried out as described above for VEGF-R2, except for the following changes in concentration: LCK = 60 nM, MgCl2 = 0 mM, poly(E4Y1) = 20 mM.

For data set [3], the system named is human umbilical vein endothelial cells (HUVEC). Put plainly: HUVEC proliferation assay (VEGF-stimulated, MTT). The note with it: Homo sapiens, HUVEC, Table 1. Type of data set: cell-based.
Data set [4] has as its system VEGF dependent retinal vascular development. Put plainly: In vivo assay of retinal vascular development in neonatal rats. The arrangement: species or system rat. The protocol:
The development of the retinal vascular in rats occurs from postnatal day 1 to postnatal day 14 (P1-P14). […] To assess the ability of specific compounds to inhibit the activity of VEGF in vivo, compounds were formulated in an appropriate vehicle, usually 50% polyethylene glycol, average molecular weight 400 daltons, and 50% solution of 300 mM sucrose in deionized water. […] Six days after the intravitreal injection, the animals were sacrificed and the retinas dissected free from the remaining ocular tissue. […] The individual retinas are then flat-mount onto glass slides and examined to determine the extent of vascularization. […] The amount of vessel regression was used to assess the relative potency of the compounds after in vivo administration.
For more quantitative analysis of regression, images of ADPase-stained, flat-mounted retinas were captured with a digital camera attached to a dissecting microscope. Retinal images were then imported into an image analysis software (Image Pro Plus 4.0, Media Cybernetics, Silver Spring, MD). The software was employed to determine the percentage of the area of the retina that contained stained vessels. This value for the experimental eye was compared to that measured for the vehicle injected, contralateral eye from the same animal. The reduction in the vascular area seen in the eye that received compound as compared to the vehicle-injected eye was then expressed as the "percent regression" for that sample.

Data set [5] relates to VEGF dependent retinal neovascularization. As to the kind of experiment: Neonatal rat model of retinopathy of prematurity. The note with it: Model ROP, intravitreal, vehicle PEG/water 70:30. Type of data set: in vivo. Here is the method:
A second model of VEGF dependent retinal neovascularization was employed to evaluate the activities of this series of compounds. […] The animals are exposed for 24 hours to a concentration of 50% oxygen followed by 24 hours at a concentration of 10% oxygen. This alternating cycle of hyperoxia followed by hypoxia is repeated 7 times after which the animals are removed to room air (P14). Compounds are administered via intravitreal injection upon removal to room air and the animals are sacrificed 6 days later (P20). The isolated retinas are then isolated, stained mounted and analyzed as detail above in the development model. The effectiveness was also graded as is described for the development model.

Data set [6] can be described thus: in vivo. Conditions: mouse, plasma, pH 2.3.
The target of data set [7] is human FGF-R1 (Homo sapiens, UniProt P11362, C488A/C584S/L457V). As to the kind of experiment: FGF-R spectrophotometric assay. In kind it is biochemical. Conditions: Table 1; compound concentration 1 µM; read-out: FGF-P* (% inhibition). The protocol: The spectrophotometric assay was carried out as described above for VEGF-R2, except for the following changes in concentration: FGF-R = 50 nM, ATP = 2 mM, and poly(E4Y1) =15 mM.

Data set [8] can be described thus: in vitro. Type of data set: in vitro ADME, human. The note with it: human liver microsomes, 5 µM test compound, 37 °C, 2 h. Summed up: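 HLM diluted to 5 mg/mL in 100 mM KPO4, preincubated 10 min at 37 °C with NADPH-regenerating system. Compound (5 µM final) incubated at 37 °C in triplicate, sampled at 0 and 2 h into ice-cold acetonitrile, then LC-MS analysis.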
(Liver microsomes are vesicles of endoplasmic reticulum, rich in cytochrome P450 enzymes.)

Where [9] appears, read: MV522, Table 1, read-out: MV522 IC50.
Setting [10] is: + albumin, read-out: HUVEC + albumin IC50.
Setting [11] is: mouse, in vivo, ip, 25 mg/kg, pH 2.3.
Where [12] appears, read: mouse, in vivo, po, 50 mg/kg, pH 2.3.
Setting [13] is: Model P8, intravitreal, 5 mg/ml, vehicle PEG/water 50:50.
[14] abbreviates: IP, 25 mg/kg, vehicle PEG400:H2O pH 2.3 30:70.
[15] abbreviates: PO, 50 mg/kg, vehicle PEG400:H2O pH 2.3 30:70.

Molecules are shown by their SMILES. Where two headings read alike, the source gives them in different places. Some results are limits rather than exact numbers.

Chain of LCK tyrosine kinase (P06239 223-509 P223M/C224D): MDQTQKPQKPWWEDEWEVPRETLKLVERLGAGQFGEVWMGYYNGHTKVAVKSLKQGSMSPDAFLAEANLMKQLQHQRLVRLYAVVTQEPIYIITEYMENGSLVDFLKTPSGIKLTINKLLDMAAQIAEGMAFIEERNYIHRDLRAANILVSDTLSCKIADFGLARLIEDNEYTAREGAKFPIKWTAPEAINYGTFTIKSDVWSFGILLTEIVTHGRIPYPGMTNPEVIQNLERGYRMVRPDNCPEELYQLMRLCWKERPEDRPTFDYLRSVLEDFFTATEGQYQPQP
Chain of human FGF-R1 (P11362 456-766 L457V/C488A/C584S): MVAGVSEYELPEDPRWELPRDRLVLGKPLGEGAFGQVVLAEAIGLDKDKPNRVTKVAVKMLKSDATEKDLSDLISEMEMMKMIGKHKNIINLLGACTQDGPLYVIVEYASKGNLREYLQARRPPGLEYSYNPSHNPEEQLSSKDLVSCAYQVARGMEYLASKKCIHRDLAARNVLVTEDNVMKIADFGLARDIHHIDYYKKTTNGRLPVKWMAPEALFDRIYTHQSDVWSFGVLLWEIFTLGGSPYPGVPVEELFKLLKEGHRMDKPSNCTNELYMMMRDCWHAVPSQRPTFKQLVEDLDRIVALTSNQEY

Broadly, the IC50 is the concentration needed to halve the response being measured. A word on the inhibition: it is the change of the read-out against control, counted positive when it falls. For `CC(=O)Nc1cccc(N(C)c2ccc3c(/C=C/c4ccccc4)n[nH]c3c2)c1` [12(a), N-{3-[Methyl-(3-styryl-1H-indazol-6-yl)-amino]-phenyl]-acetamide], the 50% inhibitory concentration (IC50) in [1] (setting [9]) is 2.1 µM; in [3] (setting [10]), 0.087 µM; in data set [3] (read-out: HUVEC IC50), 0.006 µM. For the same compound, in data set [2], the inhibition at 1 µM came out at 17%.

`C=C(c1cccc(NC(=O)c2ccccc2)c1)c1ccc2c(/C=C/c3ccccc3)n[nH]c2c1` [22(b), 6-(1-(3-(Benzoylamido)phenyl)-vinyl)-3-styryl-1H-indazole]: the half-maximal inhibitory concentration (IC50) in [1] (setting [9]) amounted to 8.5 µM; in [3] (read-out: HUVEC IC50), 0.0048 µM.

The % Inhibition is the drop in the measured response relative to a control, in per cent. Take `C/C=C/C(=O)Nc1cccc(C(=O)c2ccc3c(/C=C/c4ccccn4)n[nH]c3c2)c1` [41 (c)]: the AUCleast is, setting by setting: under setting [11], 3397 ng·h/mL; under setting [12], 3182 ng·h/mL. For the same compound, the T1/2 is 1.7 h under setting [11] and 2.6 h under setting [12]. Further, the “Initial Evaluation” value was “++ (two pluses being judged to be approximately 25-75 % regression)” in data set [4] (setting [13]) and “+++ (three pluses give to retinas with near total regression (approximately 75% or greater))” in data set [5] (10 mg/ml). In addition, the “% Inhibition” value in [5] (1 mg/ml) turned out to be 16%; in [5] (10 mg/ml), 54%.

On to `CC(C)C(=O)Nc1cccc(C(=O)c2ccc3c(/C=C/c4ccccc4)n[nH]c3c2)c1` [19(h), 6-[3-(2-methylpropionamido)benzoyl]-3-E-styryl-1H indazole], for which the values for the IC50 in [1] (setting [9]) and in [3] (read-out: HUVEC IC50) were 7.9 µM and 0.6 µM, respectively.

For orientation: AUC means the area under the concentration-time curve, a measure of exposure. A higher AUC goes with high exposure. Take `O=C(Nc1cccc(Oc2ccc3c(/C=C/c4c[nH]cn4)n[nH]c3c2)c1)c1ccccc1` [Reference Example 32(a), 6-[3-benzamidophenoxy]-3-E-[2-(1H-imidazol-4-yl)ethenyl]-1H-indazole]: the AUC in data set [6] (ip, 25 mg/kg) was greater than 20600 ng·h/mL; in data set [6] (po, 50 mg/kg), 4190 ng·h/mL. The inhibition at 1 µM in data set [7] was determined as 96%; in [2] it was 86%. Further, the “% Inhibition” value in [4] (Model P9, intravitreal, 5 mg/ml, vehicle PEG/water 50:50) is 20%. The concentration for half-maximal inhibition (IC50) in [3] (setting [10]) came to 0.0045 µM; in data set [3] (read-out: HUVEC IC50) it was 0.00016 µM.

Regarding `O=C(c1cccc(NC(=O)c2cccc3[nH]ccc23)c1)c1ccc2c(/C=C/c3ccccc3)n[nH]c2c1` [19(f), 6-[3-(indol-4-ylcarboxamido)benzoyl]-3-E-styryl-1H-indazole], the inhibition at 1 µM in [7] was found to be 58%; in data set [2], 52%. Also, the values for the 50% inhibitory concentration (IC50) in [1] (setting [9]), in data set [3] (setting [10]) and in [3] (read-out: HUVEC IC50) were 3.9 µM, 0.016 µM and 0.0023 µM, respectively. In data set [8], the “% remain (HLM, 2 h)” value stood at 98%.

For the compound `COc1cc(-c2ccc3c(-c4ccc5ccccc5c4)n[nH]c3c2)ccc1O` [2(a), 3-(Naphthalen-2-yl)-6-(3-methoxy-4-hydroxy-phenyl)-1H-indazole], the half-inhibitory concentration (IC50) in data set [1] (MV522, read-out: MV522 IC50 (µM)) was 0.58 µM.

Regarding `O=C(Nc1cccc(C(=O)c2ccc3c(-c4nc5cccnc5[nH]4)n[nH]c3c2)c1)c1ccccc1` [Example 42(d), 6-(3-benzamidobenzoyl)-3-(3H-imidazo[4,5-b]pyridin-2-yl)-1H-indazole], the half-inhibitory concentration (IC50) in [1] (setting [9]) is greater than 10 µM.

Consider `O=C(Nc1cccc(Cl)c1)c1ccccc1Sc1ccc2c(/C=C/c3ccccn3)n[nH]c2c1` [Reference Example 33(d), 6-[2-(3-chlorophenylcarbamoyl)phenylsulfanyl]-3-E-[2-(pyridin-2-yl)ethenyl]-1H-indazole], for which the half-inhibitory concentration (IC50) in [1] (setting [9]) was 8 µM; in [3] (setting [10]), greater than 0.3 µM. In addition, the inhibition at 1 µM in data set [2] worked out at 55%. Moreover, the “% remain (HLM, 2 h)” value in [8] was 22%.

For the compound `Cc1cc(C(=O)Nc2cccc(Oc3ccc4c(/C=C/c5ccccn5)n[nH]c4c3)c2)nn1C` [Reference Example 31(b), 6-[3-((1,5-Dimethyl-1H-pyrazol-3-yl)carboxamido)phenoxy]-3-E-[2-(pyridin-2-yl)ethenyl)-1H-indazole], the T1/2 runs as follows: under setting [14], 1.7 h; under setting [15], 1.0 h. The AUC in data set [6] (ip, 25 mg/kg) was greater than 7040 ng·h/mL; in data set [6] (po, 50 mg/kg), 2070 ng·h/mL. The inhibition at 1 µM in [7] worked out at 97%; in data set [2], 66%. For the same compound, the “% Inhibition” value in [4] (setting [13]) was 32%. Besides, in [3] (setting [10]), the IC50 was found to be 0.0056 µM.

Consider `CCn1nc(C)cc1C(=O)Nc1cccc(C(=O)c2ccc3c(/C=C/c4ccccn4)n[nH]c3c2)c1` [41 (a)], for which the T1/2 under setting [14] worked out at 2.9 h and the T1/2 under setting [15] was 3.4 h. For the same compound, the AUC came to 92800 ng·h/mL in data set [6] (ip, 25 mg/kg) and 49000 ng·h/mL in data set [6] (po, 50 mg/kg). Further, in data set [4] (Model P8, intravitreal, 1 mg/ml, vehicle PEG/water 50:50), the “% Inhibition” value was 4%.

Regarding `O=C(c1cccc(NC(=O)c2cc(Cl)ccn2)c1)c1ccc2c(/C=C/c3ccccc3)n[nH]c2c1` [19(n), 6-[3-(4-chloropyridin-2-ylcarboxamido)benzoyl)-3-E-styryl-1H-indazole], the inhibition at 1 µM in [7] came to 48%; in data set [2], 26%. The IC50 in [1] (setting [9]) turned out to be 2.9 µM; in data set [3] (setting [10]) it was 0.023 µM; in data set [3] (read-out: HUVEC IC50) it was 0.0034 µM.

With `CC(=O)Nc1cccc(Sc2ccc3c(/C=C/c4ccccc4)n[nH]c3c2)c1` [20(a), 6-(3-Acetamido-phenylsulfanyl)-3-styryl-1H-indazole], the IC50 in data set [1] (setting [9]) amounted to 9.4 µM; in [3] (read-out: HUVEC IC50), 0.2 µM.

For the compound `Cc1cc(C(=O)Nc2cccc(C(=O)c3ccc4c(/C=C/c5ccccn5)n[nH]c4c3)c2)n(C)n1` [41 (p)], under setting [14], the T1/2 was determined as 5.5 h. The exposure (AUC) in data set [6] (ip, 25 mg/kg) is 4150 ng·h/mL. Further, in data set [4] (setting [13]), the “% Inhibition” value is on record as 35%.

For `O=C(Nc1cccc(Oc2ccc3c(/C=C/c4ccccn4)n[nH]c3c2)c1)c1ccccc1` [Reference Example 31(a), 6-[3-benzamidophenoxy]-3-E-[2-(Pyridin-2-yl)ethenyl]-1H-indazole], the T1/2 by setting is: under setting [14], 2.4 h; under setting [15], 1.6 h. Moreover, the AUC in data set [6] (ip, 25 mg/kg) amounted to 47500 ng·h/mL; in data set [6] (po, 50 mg/kg), 40900 ng·h/mL. Also, the inhibition at 1 µM in [7] was found to be 95%; in data set [2] it was 77%. The “% Inhibition” value in data set [4] (Model P8, intravitreal, 5 mg/ml, vehicle PEG/water 70:30) came out at 46%. Further, the values for the IC50 in data set [3] (setting [10]) and in [3] (read-out: HUVEC IC50) were 0.01 µM and 0.0007 µM, respectively. The “% remain (HLM, 2 h)” value in [8] was 58%.
